The record followed here is patent US12655150B2 (Cedilla Therapeutics, Inc., priority 2021, dated 2026).

Bounds are passed on as bounds.

The experiment relates to NCI-H226. The experiment is described as follows: 72H TEAD Proliferation Assay (Cell Titer Glo 2.0). Type of experiment: cell-based. Particulars: Homo sapiens, NCI-H226, 72 h, CTG 2.0, cell line not given (NCI-H226 responsive, NCI-H28 non-responsive). The method, boiled down: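 NF2-deficient NCI-H226 mesothelioma cells, TEAD-dependent, treated 72 h; NF2-wild-type NCI-H28 serves as the TEAD-independent counter-screen for off-target cytotoxicity. Viable cells quantified by CellTiter-Glo 2.0 luminescence; background and time-zero signal subtracted, GI50 from nonlinear dose-response fit.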
(In general: In ATP-based viability assays light output follows the ATP content of the culture.)
In general, GI50 refers to the concentration at which growth is held to half of that of the control. As for `O=C(O)c1ccc2c(c1)nc(NC1CCC(C(F)(F)F)CC1)c1cccn12` (centres unmarked) [I-18, 4-((4-(Trifluoromethyl)cyclohexyl)amino)pyrrolo[1,2-a]quinoxaline-7-carboxylic acid], the GI50 was 1000 to 5000 nM.

Turning to `O=C(/C=C/CF)NCc1cn2c(F)cnc2c(-c2ccc(C(F)(F)F)cc2)n1` [I-249, (E)-4-Fluoro-N-((3-fluoro-8-(4-(trifluoromethyl)phenyl)imidazo[1,2-a]pyrazin-6-yl)methyl)but-2-enamide], the GI50 was ≤ 1000 nM. Take `Cc1cc(-c2ccc(C(F)(F)F)cc2)nc2cc(C(=O)N[C@@H](C)CO)ccc12` [I-262, (S)—N-(1-hydroxypropan-2-yl)-4-methyl-2-(4-(trifluoromethyl)phenyl)quinoline-7-carboxamide]: the GI50 was ≤ 1000 nM. Take `CC(C)(C)c1ccc(-c2nc3cc(C(=O)O)ccc3n3cc(OC(F)F)cc23)cc1` [I-274, 4-(4-(tert-butyl)phenyl)-2-(difluoromethoxy)pyrrolo[1,2-a]quinoxaline-7-carboxylic acid]: the GI50 was ≤ 1000 nM. For `O=C(O)c1ccc2c(c1)nc(N1CCCC(F)(F)C1)c1cccn12` [I-5, 4-(3,3-Difluoropiperidin-1-yl)pyrrolo[1,2-a]quinoxaline-7-carboxylic acid], the GI50 was > 10000 nM. Under `O=C(O)c1ccc2c(c1)nc(N1CCC3(CC1)CC3)c1ncnn12` [I-285, 4-(6-azaspiro[2.5]octan-6-yl)-[1,2,4]triazolo[1,5-a]quinoxaline-7-carboxylic acid] stands 1000 to 5000 nM. Regarding `COc1nc(-c2ccc(C(F)(F)F)cc2)nc2cc(C(=O)O)ccc12` [I-433, 4-methoxy-2-(4-(trifluoromethyl)phenyl)quinazoline-7-carboxylic acid], the GI50 is ≤ 1000 nM. On to `C=CC(=O)NCc1cn2ccnc2c(-c2ccc(C(F)(F)F)cn2)n1` [I-313, N-((8-(5-(trifluoromethyl)pyridin-2-yl)imidazo[1,2-a]pyrazin-6-yl)methyl)acrylamide], for which the GI50 fell in the range of 1000 to 5000 nM. On to `C=CC(=O)NCc1nc(-c2ccc(C(F)(F)F)cc2)c2cccnc2n1` [I-304, N-((4-(4-(trifluoromethyl)phenyl)pyrido[2,3-d]pyrimidin-2-yl)methyl)acrylamide], for which the GI50 was ≤ 1000 nM.

`O=C(O)c1ccc2c(C3CCOCC3)cc(-c3ccc(C(F)(F)F)cc3)nc2c1` [I-390, 4-(tetrahydro-2H-pyran-4-yl)-2-(4-(trifluoromethyl)phenyl)quinoline-7-carboxylic acid] had a GI50 of 5000 to 10000 nM. For the molecule `C=C(F)C(=O)NCc1cc2ccccc2c(-c2ccc(C(C)(C)C)cc2)n1` [I-215, N-((1-(4-(tert-butyl)phenyl)isoquinolin-3-yl)methyl)-2-fluoroacrylamide], the GI50 is ≤ 1000 nM. Regarding `COc1cc(-c2ccc(C(F)(F)F)cc2)nc2cc(C(=O)N[C@@H](C)c3cccc(O)c3)ccc12` [I-349, (S)—N-(1-(3-hydroxyphenyl)ethyl)-4-methoxy-2-(4-(trifluoromethyl)phenyl)quinoline-7-carboxamide], the GI50 was ≤ 1000 nM. The same measure for `O=C(O)c1ccc2c(c1)nc(-c1ccc(C3(C(F)(F)F)CC3)cc1)c1cccn12` [I-196, 4-(4-(1-(trifluoromethyl)cyclopropyl)phenyl)pyrrolo[1,2-a]quinoxaline-7-carboxylic acid]: 1000 to 5000 nM; for `O=C(O)c1ccc2c(c1)nc(-c1ccc(C3CCCCC3)cc1)c1nccn12` [I-62, 4-(4-Cyclohexylphenyl)imidazo[1,2-a]quinoxaline-7-carboxylic acid]: > 10000 nM; for `O=C(O)c1ccc2c(c1)nc(N1CCC(c3ccccc3)CC1)c1cccn12` [I-13, 4-(4-Phenylpiperidin-1-yl)pyrrolo[1,2-a]quinoxaline-7-carboxylic acid]: > 10000 nM. `O=C(O)c1ccc2c(N3CCCCC3)cc(-c3ccc(C(F)(F)F)cc3)nc2c1` [I-391, 4-(piperidin-1-yl)-2-(4-(trifluoromethyl)phenyl)quinoline-7-carboxylic acid]: the GI50 was 1000 to 5000 nM. Turning to `CC(C)(C)c1ccc(-c2nc3cc(C#N)ccc3n3ccnc23)cc1` [I-75, 4-(4-(tert-Butyl)phenyl)imidazo[1,2-a]quinoxaline-7-carbonitrile], the GI50 was > 10000 nM. `O=C(O)c1cc2nc(N3CCC4(CC3)CC4)c3cccn3c2cn1` [I-281, 6-(6-azaspiro[2.5]octan-6-yl)pyrido[4,3-e]pyrrolo[1,2-a]pyrazine-3-carboxylic acid]: the GI50 lay in the range of 1000 to 5000 nM.

`CC(C)c1cc(-c2ccc(C(F)(F)F)cc2)nc2cc(C(=O)O)ccc12` [I-425, 4-isopropyl-2-(4-(trifluoromethyl)phenyl)quinoline-7-carboxylic acid] returned a GI50 of 1000 to 5000 nM. For the molecule `CC(F)(F)C1CCN(c2nc3cc(C(=O)O)ccc3n3cccc23)CC1` [I-14, 4-(4-(1,1-Difluoroethyl)piperidin-1-yl)pyrrolo[1,2-a]quinoxaline-7-carboxylic acid], the GI50 is > 10000 nM. Consider `C=CC(=O)Nc1ccc2ncc(-c3ccc(C(C)(C)C)cc3)nc2c1` [I-92, N-(3-(4-(tert-butyl)phenyl)quinoxalin-6-yl)acrylamide], for which the GI50 lay within 1000 to 5000 nM. For the molecule `C=CC(=O)NCc1cn2ccnc2c(Oc2cccc(C(C)(C)C)c2)n1` [I-441, N-((8-(3-(tert-butyl)phenoxy)imidazo[1,2-a]pyrazin-6-yl)methyl)acrylamide], the GI50 was ≤ 1000 nM. Under `C=CC(=O)NC(C)(CO)c1cn2ccnc2c(-c2ccc(C(F)(F)F)cc2)n1` (centres unmarked) [I-251, N-(1-hydroxy-2-(8-(4-(trifluoromethyl)phenyl)imidazo[1,2-a]pyrazin-6-yl)propan-2-yl)acrylamide] stands ≤ 1000 nM.

Turning to `O=C(O)c1ccc2c(c1)nc(N1CCC3(CC1)COC3)c1cccn12` [I-29, 4-(2-Oxa-7-azaspiro[3.5]nonan-7-yl)pyrrolo[1,2-a]quinoxaline-7-carboxylic acid], the GI50 is > 10000 nM. In turn, `CC(CO)NC(=O)c1ccc2c(c1)nc(-c1ccc(C(C)(C)C)cc1)c1cccn12` (centres unmarked) [I-186, 4-(4-(tert-butyl)phenyl)-N-(1-hydroxypropan-2-yl)pyrrolo[1,2-a]quinoxaline-7-carboxamide] had a GI50 of 1000 to 5000 nM. Under `C=CC(=O)NCc1cn2nccc2c(-c2ccc(C(F)(F)F)cc2)n1` [I-316, N-((4-(4-(trifluoromethyl)phenyl)pyrazolo[1,5-a]pyrazin-6-yl)methyl)acrylamide] stands ≤ 1000 nM.

With `O=C(O)c1ccc2c(C3CC3)cc(-c3ccc(C(F)(F)F)cc3)nc2c1` [I-387, 4-cyclopropyl-2-(4-(trifluoromethyl)phenyl)quinoline-7-carboxylic acid], the GI50 was ≤ 1000 nM. As to `COc1cc(-c2ccc(C(F)(F)F)cc2)nc2cc(-c3ccccn3)ccc12` [I-418, 4-Methoxy-7-(pyridin-2-yl)-2-(4-(trifluoromethyl)phenyl)quinoline], the GI50 was in the range of 5000 to 10000 nM. Regarding `C=CC(=O)Nc1cn2cccc2c(-c2ccc(C3(C(F)(F)F)CC3)cc2)n1` [I-102, N-(1-(4-(1-(trifluoromethyl)cyclopropyl)phenyl)pyrrolo[1,2-a]pyrazin-3-yl)acrylamide], the 50% growth inhibitory concentration (GI50) is ≤ 1000 nM. The same measure for `C=CC(=O)Nc1ccc2c(c1)nc(-c1ccc(C(F)(F)F)cc1)c1cccn12` [I-120, N-(4-(4-(trifluoromethyl)phenyl)pyrrolo[1,2-a]quinoxalin-7-yl)acrylamide]: ≤ 1000 nM. On to `COCc1cc(-c2ccc(C(F)(F)F)cc2)nc2cc(C(=O)O)ccc12` [I-270, 4-(methoxymethyl)-2-(4-(trifluoromethyl)phenyl)quinoline-7-carboxylic acid], for which the GI50 is ≤ 1000 nM.

Turning to `C=CC(=O)NCc1cc2cccc(F)c2c(-c2ccc(C(F)(F)F)cc2)n1` [I-289, N-((8-fluoro-1-(4-(trifluoromethyl)phenyl)isoquinolin-3-yl)methyl)acrylamide], the GI50 was ≤ 1000 nM. Molecule `CC1(C)CCN(c2nc3cc(C(=O)O)ccc3n3cccc23)CC1` [I-3, 4-(4,4-Dimethylpiperidin-1-yl)pyrrolo[1,2-a]quinoxaline-7-carboxylic acid] had a GI50 of 1000 to 5000 nM. The molecule `O=C(O)c1ccc2c(c1)nc(N1CCC3(CCCOC3)CC1)c1cccn12` [I-26, 4-(2-Oxa-9-azaspiro[5.5]undecan-9-yl)pyrrolo[1,2-a]quinoxaline-7-carboxylic acid] displayed a GI50 of 5000 to 10000 nM. Under `CC(C)(C)C#Cc1nc2cc(C(=O)O)ccc2n2cccc12` [I-118, 4-(3,3-Dimethylbut-1-yn-1-yl)pyrrolo[1,2-a]quinoxaline-7-carboxylic acid] stands > 10000 nM; under `C=CC(=O)Nc1ccc2c(OC)cc(-c3ccc(C(C)(C)C)cc3)nc2c1` [I-384, N-(2-(4-(Tert-butyl)phenyl)-4-methoxyquinolin-7-yl)acrylamide], ≤ 1000 nM; under `C=CC(=O)NCc1nc(-c2ccc(C(F)(F)F)cc2)c2[nH]ccc2n1` [I-450, N-((4-(4-(trifluoromethyl)phenyl)-5H-pyrrolo[3,2-d]pyrimidin-2-yl)methyl)acrylamide], 5000 to 10000 nM.

On to `CC(=O)c1cc(-c2ccc(C(F)(F)F)cc2)nc2cc(C(=O)O)ccc12` [I-396, 4-acetyl-2-(4-(trifluoromethyl)phenyl)quinoline-7-carboxylic acid], for which the GI50 fell in the range of 1000 to 5000 nM. For the molecule `CC(O)C(=O)Nc1ccc2c(c1)nc(-c1ccc(C(C)(C)C)cc1)c1cccn12` (centres unmarked) [I-204, N-(4-(4-(tert-Butyl)phenyl)pyrrolo[1,2-a]quinoxalin-7-yl)-2-hydroxypropanamide], the GI50 fell in the range of 1000 to 5000 nM.

In turn, `C[C@@H](CO)NC(=O)c1ccc2c(c1)nc(-c1ccc(C(C)(C)C)cc1)c1cccn12` [I-190, (S)-4-(4-(tert-butyl)phenyl)-N-(1-hydroxypropan-2-yl)pyrrolo[1,2-a]quinoxaline-7-carboxamide] registered a GI50 of 1000 to 5000 nM. As to `O=C(O)c1ccc2c(c1)nc(C1CCC1)c1cccn12` [I-113, 4-Cyclobutylpyrrolo[1,2-a]quinoxaline-7-carboxylic acid], the GI50 is > 10000 nM.
